Measurements: patent US4945102A, “Heterocyclic derivatives and radiosensitizing agents and antiviral agents comprising same as their active component” (Pola Chemical Industries Inc., Japan, priority 1987, dated 1990)
Like-named read-outs stand apart in the source and are kept apart here.

Tests used:
Acute toxicity test = format: in vivo; conditions: for LD50 at 336 h / General Status: mouse, in vivo; for LD50 at 336 h: ICR male mice, 14 days, read-out: LD50/14 (50% death rate over 14 days)
Protocol: Acute toxicity test and other tests regarding radiosensitising ability and antiviral activity were carried out using the compounds of the present invention.
ICR strain male mice of 5 week old were intravenously or intraperitoneally administered with various compounds each dissolved in a physiological saline or in a physiological saline containing 10% DMSO. The mice were observed over 14 days and 50% death rates (LD50/14) were obtained.

EMT-6 tumor = assay: Radiosensitivity in vivo test (EMT-6 tumor); parameters: species or system Balb/c mice; conditions: 200 mg/kg intraperitoneal 20 minutes prior to whole body 60Co irradiation
Protocol: Tested compound: compound (3), 200 mg/kg
Compound (3) dissolved in a physiological saline was intraperitoneally administered 20 minutes prior to irradiation.
Irradiation: ^60 Co - gamma rays, whole body irradiation
Determination of radiosensitivity enhancement:
Enhancement ratio (ER) was obtained from irradiation dose and reduction ratio of tumor cells.

Spheroids of EMT-6 = assay: Radiosensitivity test, in vitro test 2 (spheroids of EMT-6); format: cell-based; conditions: 1 mM, 37° C. over 30 to 60 minutes, 60Co gamma rays
Protocol: (b) In vitro test 2 Cells used in the test: Spheroids of EMT-6 Irradiation: ^60 Co - gamma rays Tested compound: Compound (3), 1 mM Determination of radiosensitivity enhancement: Six particles of spheroid having a certain size were taken and placed in a culture solution containing compound (3) having a concentration of 1 mM, and incubated at 37° C. over 30 to 60 minutes, followed by irradiation. The spheroids were treated by trypsin and then the enhancement ratio (ER) was obtained by counting colonies.

single cells of EMT-6 = assay: Radiosensitivity test, in vitro test 1 (single cells of EMT-6, hypoxic); format: cell-based; conditions: 1.0 mM, single EMT-6 cells, 60Co gamma rays
Excerpt: Cells used in the test: single cells of EMT-6
Irradiation: ^60 Co - gamma rays
Cell treatment to hypoxia:
A mixture gas of 95% nitrogen and 5% carbon dioxide was passed through cell suspension.
Determined by counting colonies.
Radiosensitivity enhancement ratio (ER): [formula]

[1] = tested on: Herpes simplex virus type I; assay: Antiviral activity test (cytopathic effect in Vero cells); format: cell-based; parameters: key: 0: almost all cells are dead; 1: certain effect of test agent with some dead cells; 2: normal; conditions: one day
Protocol: (3) Antiviral activity test Virus: Herpes simplex virus type I Cells: Vero (monkey kidney cells) Culture medium: 2% FBS MEM A sample conditioned to contain 2×10^5 /ml of vero cells was cultured at 37° C. in an atmosphere of 5% CO2 for 1 day to obtain a monolayer sample. The sample was infected by HSV virus diluted with PBS (phosphate buffer). Compound (I) was dissolved in DMSO, then adjusted to have concentrations of 100 μg/ml, 50 μg/ml, 10/μg/ml,5,μ/ml and 1 μg/ml by 2% FBS MEM, and served as test agents. The culture cells were added with each agent separately and incubated at 37° C. in a Co2 incubator for one day. The cytopathic effect was observed under microscope. Cells were stained by crystal violet and scored as follows: 0: almost all cells are dead 1: certain effect of test agent with some dead cells 2: normal The results are shown in Table 3.

Compound	Dead/Treated (Acute toxicity test; intraperitoneal, 600 mg/kg)	Dead/Treated (Acute toxicity test; intraperitoneal, 720 mg/kg)	Dead/Treated (Acute toxicity test; intraperitoneal, 860 mg/kg)	LD50 at 336 h (Acute toxicity test; ip, intraperitoneal)	General Status (Acute toxicity test; ip)	Dead/Treated (Acute toxicity test; intravenous, 720 mg/kg)	Dead/Treated (Acute toxicity test; intravenous, 860 mg/kg)	General Status (Acute toxicity test; iv)	LD50 at 336 h (Acute toxicity test; intravenous)	enhancement ratio (ER) (EMT-6 tumor)	enhancement ratio (ER) (Spheroids of EMT-6)	Radiosensitivity enhancement ratio (ER) (single cells of EMT-6)	cytopathic effect score ([1]; 1 μg/ml)	cytopathic effect score ([1]; 5 μg/ml)	cytopathic effect score ([1]; 10 μg/ml)	cytopathic effect score ([1]; 50 μg/ml)	cytopathic effect score ([1]; 100 μg/ml)
CC(=O)OCC(COC(C)=O)OCn1cnc([N+](=O)[O-])n1 [(2), 1-[2-acetoxy-1-(acetoxymethyl)ethoxy]methyl-3-nitro-1,2,4-triazol]	0/2	0/2	2/2	790 mg/kg	–	–	–	–	–	–	–	–	–	–	–	–	–
CC(=O)OCC(COC(C)=O)OCn1ccnc1[N+](=O)[O-] [(1), 1-[2-acetoxy-1-(acetoxymethyl)ethoxy]methyl-2-nitroimidazol]	–	0/2	0/2	> 860 mg/kg	Calmed down	–	–	–	–	–	–	–	–	–	–	–	–
O=[N+]([O-])c1nccn1COC(CO)CO [Compound (3), 1-[2-hydroxy-1-(hydroxymethyl)ethoxy]methyl-2-nitroimidazol]	–	–	–	–	–	0/2	0/2	Calmed down	> 860 mg/kg	1.55	1.55	1.70	0	0	1	2	2
O=[N+]([O-])c1ncn(COC(CO)CO)n1 [(4), 1-[2-hydroxy-1-(hydroxymethyl)ethoxy]methyl-3-nitro-1,2,4-triazol]	–	–	–	–	–	0/2	1/2	Calmed down	860 mg/kg	–	–	1.50	0	0	1	2	2
